Legend:
[1] = system: CCNE1-non-amplified cell lines (COV504, OV56, Igrov1); experiment: Cell cycle analysis by FACS upon CDK4/6 inhibition, CCNE1-non-amplified cell lines; format: cell-based, human
Method: (§1) The effect of CDK4/6-inhibition in CCNE1-amplified versus CCNE1-non-amplified cell lines was evaluated.
(§2) A similar experiment was performed in a larger set of CCNE1-amplified cell lines (COV318 and OVCAR3) and CCNE1-non-amplified cell lines (COV504, OV56, and Igrov1) (FIG. 6).
(§3) The complete growth medium was supplemented with 10% FBS, 0.1 mM non-essential amino acids, 2 mM L-glutamine, 100 units/mL penicillin G and 100 μg/mL streptomycin in 37° C. humidified incubator and an atmosphere of 5% CO2 in air. Fu-OV1 line was purchased from Leibniz-Institute DSMZ—German Collection of Microorganisms and Cell Cultures; MKN1 was purchased from Japanese Cancer Research Resources Bank; and the rest of cell lines were purchased from American Type Culture Collection.
(§4) Bulk DNA was stained with DAPI. Compound-treated and DMSO treated control cells were acquired with CytoFlex (Beckman Coulter) and were analyzed using the FlowJo software.

[2] = system: CCNE1-amplified cell lines (COV318, OVCAR3); experiment: Cell cycle analysis by FACS upon CDK4/6 inhibition, CCNE1-amplified cell lines; format: cell-based, human
Method: as §1, §2, §3, §4

[3] = system: Rb phosphorylation at S780 in CCNE1-amplified cell lines (OVCAR3 and COV318); experiment: Western blot of Rb phosphorylation at S780, CCNE1-amplified cell lines; format: cell-based, human; details: various doses, 1 or 15 hours
Method: (§5) The effect of CDK4/6-inhibition on Rb phosphorylation at 5780 in CCNE1-amplified versus CCNE1-non-amplified cell lines was evaluated. […] One or 15 hours after treatment, the cells were harvested and total protein was extracted and analyzed by western blot (FIG. 8).
(§6) Whole cell extracts were prepared using RIPA buffer (Thermo Scientific, 89900) with a Halt Protease and Phosphatase Inhibitor Cocktail (Thermo Scientific, 78440). Protein concentration was quantified with a BCA Protein Assay Kit (Thermo Scientific, 23225) and 40 μg of protein lysates were loaded for SDS-PAGE using precast gradient gels (Bio-Rad, Hercules, No. 456-1094). Samples were diluted in 5× Laemmli buffer (300 mM Tris-HCl pH 6.8, 10% SDS (w/v), 5% 2-mercaptoethanol, 25% glycerol (v/v), 0.1% bromophenol blue w/v) and boiled for 5 minutes. […] of proteins were separated by 8-15% SDS-PAGE and transferred onto polyvinylidene fluoride (PVDF) membranes. Unspecific binding sites on the PVDF membranes were blocked with 5% non-fat milk in TBST (20 mM Tris-HCl, pH 7.6, 137 mM NaCl, 1% Tween-20). […] Images were captured by Luminescence/Fluorescence Imaging System Odyssey CLx Imager (LI-COR).

[4] = system: Rb phosphorylated on serine 780 in CCNE1 amplified COV318 cells; experiment: CDK2 pRb (S780) HTRF cellular assay; format: cell-based; details: Homo sapiens, overnight treatment, read-out: IC50 in p-RB S780 HTRF cellular assay
Method: CDK2 pRb (5780) HTRF cellular assay enables the quantitative detection of Rb phosphorylated on […] in CCNE1 amplified COV318 cells. The assay comprised two antibodies: Europium cryptate labeled anti-Phospho-Rb […] antibody (donor) and d2 labeled anti-Rb antibody (acceptor). In brief, COV318 cells were seeded into the wells of 96-well plate at a density of 25,000 per well with 9-point, 3-fold serial diluted compounds and cultured overnight at 37 degree with 5% CO2. The final concentrations of compounds start from 3 μM. […] After 2h of incubation at room temperature, HTRF signals were measured on the PHERAstar microplate reader (BMG Labtech), using 340 nm as excitation wavelength, a 620 nm filter for the Europium donor fluorescence, and a 665-nm filter for the acceptor fluorescence detection. HTRF signals were calculated as the HTRF ratio (ratio of fluorescence measured at 665 nm and 620 nm)×10000.

[5] = system: Rb phosphorylation at S780 in CCNE1-non-amplified cell lines (COV504 and OV56); experiment: Western blot of Rb phosphorylation at S780, CCNE1-non-amplified cell lines; format: cell-based, human; details: various doses, 1 or 15 hours
Method: as §5, §6

## CC(=O)c1c(C)c2cnc(Nc3ccc(N4CCNCC4)cn3)nc2n(C2CCCC2)c1=O [Palbociclib]
[1]; CCNE1-non-amplified cells (COV504), increasing concentrations, 16 hours
  Inhibition of proliferation (cell cycle analysis by FACS): dose-dependent inhibition of the proliferation
[1]; COV504, OV56, Igrov1, 16 hours after treatment
  Percentage of cells at the S phase as compared to DMSO: decreased in CCNE1-non-amplified cell lines in a dose-dependent fashion
[2]; CCNE1-amplified cells (OVCAR3), increasing concentrations, 16 hours
  Inhibition of proliferation (cell cycle analysis by FACS): not in CCNE1-amplified cells
[2]; COV318 and OVCAR3, 16 hours after treatment
  Percentage of cells at the S phase as compared to DMSO: not significantly different
[3]
  Rb phosphorylation at S780 (western blot): not in CCNE1-amplified cell lines
[4]
  IC50: > 3000 nM
[5]
  Rb phosphorylation at S780 (western blot): blocked Rb phosphorylation

From patent US11427567B2, “Imidazolyl pyrimidinylamine compounds as CDK2 inhibitors” (Incyte Corporation, priority 2019, dated 2022)
